Assay results from patent US10188633B2, “Identification of small molecules that facilitate therapeutic exon skipping” (The Regents of the University of California, priority 2011, dated 2019).
Counter-ions that a name gives are not always drawn.

Columns and labels:
exon skipping = experiment: Counter screens, 16 point titrations and mdx mouse myotubes (validation of lead hits); format: cell-based
From the text: The cell line, which was adapted to allow the screening of thousands of compounds in multiple replicates, was obtained from Dr. Qi Lu. […]

DMD exon 51 [1] = experiment: DMD exon 51 skipping in reprogrammed DMD patient fibroblasts fused to myotubes (GM05017, iDRM05017) with exon 51 AO; format: cell-based, human; settings: compound added 24 h after AO for two days; nested RT-PCR exons 43-52
Protocol: (A) Differentiated primary mouse myotubes were transfected either with 100 nM 2′-O-methyl M23D, which targets exon 23 splice donor region or mock transfected for 24 hours after which the transfection reagent was removed, and myotubes were treated with different concentrations of Dantrolene for 48 hours. Nested RT-PCR was performed on cDNA between exons 20-26, as previously described. The 901 bp band is the full-length mRNA product, the 688 bp mRNA product is a single skip of exon 23, and the 550 bp mRNA product is a double skip of exons 22 and 23. (B) Mouse Dmd exon 23-skipped transcript levels were quantified using a taqman assay with primer-probe sets spanning the splice junction created by an exon 23 skip (22-24 join) relative to primers amplifying the splice junction of exons 22 and 23 (representing the full length mRNA), as previously described. […] Error bars represent standard deviation of qRT-PCR triplicates. (C) Patient derived fibroblasts with exon 45-50 deletion (confirmed by microarray, see FIG. 6) were immortalized with lentiviral hTERT and transduced with inducible lentiviral MyoD [26]. Cells were grown to confluence, induced for MyoD activity, and fused for 10 days in low serum differentiation media. On Day 7, h51AON [5′ […] 3′] (SEQ ID NO:2) (same sequence as Pro051) within human exon 51 was added at concentrations indicated. Twenty-four hours later Dantrolene or vehicle was added. Cells were harvested 2 days later and total RNA isolated. RT-PCR amplified a fragment of cDNA from exons 42-53 which was followed by a nested PCR to generate a fragment spanning exons 43-52. The 540 bp product is the full length DMD mRNA species and the 307 bp product indicates the exon 51 skip isoform. Quantitation was performed using the Agilent Bioanalyzer and represented as the skip/full-length mRNA ratio.
Patient fibroblasts with a DMD exon 45-50 deletion were immortalized and transduced with a lenti-viral vector expressing inducible MyoD to create iDRMs (inducibly directly reprogrammable myotubes, specifically iDRM05017s). iDRM05017s were induced for MyoD activity and then cultured for 10 days in fusion media. On Day 7, AO was added for twenty-four hours then removed and Piperacetazine, Trifluoperazine Dihydrochloride, Fluphenazine Dihydrochloride or vehicle (Dimethyl sulfoxide; DMSO) were added in fresh media. After two days total RNA was harvested, cDNA reverse transcribed with a DMD specific primer in exon 54, and exon 51 skipping was detected by nested RT-PCR spanning exons 43-52. Quantitation of exon 51 skipping was performed using the Agilent Bioanalyzer and is represented as the proportion of exon 51 skipping. Error bars represent the standard deviation (SD) of 3 independent wells.
Patient fibroblasts were transduced with HTERT and an inducible MyoD vector [26]. […] Exon 51 skipping activity was assessed in the context of transfecting an exon 51 2′-O-methyl AO with equivalent sequence to Pro051 seven days after fusion. This AO is directed at an exonic splicing enhancer (ESE) sequence within exon 51. The AO was removed prior to addition of dantrolene and cultures were harvested two days later. A nested RT-PCR was performed between DMD exons 43-52 and levels of exon 51 skipping were determined by quantitating capillary electrophoresis separated fragments representing skipped and unskipped DMD mRNA.

[2] = system: human DMD exon 50 GFP based reporter; experiment: BioMol high throughput screen in Ex50-GFP reporter C2C12 myoblasts, with or without AON6; format: cell-based, mouse; settings: compound 10 uM; for Average Fluorescence (n = 3): average of 3 replicate plates
From the text: Small molecule libraries were screened for exon skipping promoting activity in C2C12 myoblasts expressing a human DMD exon 50 GFP based reporter. […] In the reporter cells, successful skipping of DMD exon 50 creates in-frame GFP expression. Number of cells that were fluorescing was quantified using a high content cell imager in 384 well plate format. Fluorescence was normalized by subtracting the average fluorescence value of the carrier (DMSO) controls. Fluorescence readouts are plotted for the BioMol library screen both with (+AO) and without (−AO) from Source Plate 1 (containing the Orphan Ligand, Ion Channel, Enzyme Inhibitor, and Endocannabanoid libraries, n=300). Each point for the DMSO controls, all compounds, and the Top 5% from Source Plate 1 (n=15) represents the average normalized fluorescence of 6 replicates in the −AO screen and 3 replicates in the +AO screen. […] Individual points for dantrolene are plotted with the bold horizontal line indicating the median. The short horizontal lines interspersed among the data points indicate 1, 2, and 3 standard deviations away from the DMSO treatment mean fluorescence.
In contrast to prior screens aimed at identifying small molecules which impact exon skipping, our screen is unique at least because it relies on robust quantitation of a skipping reporter in the context of a muscle lineage cell in the presence and absence of suboptimal AO. These screens were performed using a mouse muscle cell line (C2C12) expressing a human DMD exon 50 GFP based reporter selected to minimize experimental variation and sensitivity in the context of an automated and quantitative fluorescent scanning system.
AO was added prior to small molecule incubation in an effort to identify molecules that facilitate AO skipping rather than AO delivery. The fluorescence induced by each compound was normalized to a vehicle controls per plate to correct for plate to plate variability. Fluorescence was averaged across replicate plates (n=6 without AO screen, n=3 with AO screen). Compounds were rank ordered based on average intensity of fluorescence and difference between the without AO and with AO screen (FIG. 1 and Table 2).
(§1) A stable clone was generated from C2C12 cells transfected with a human exon 50 DMD GFP reporter (ex50GFP) that has been previously described. Ex50GFP reporter myoblasts were seeded into uncoated 384 well plates and were incubated for 4 hours either with or without 300 nM of 2′-O-methyl phosphorothioate AON6 [5′[…] 3′ (SEQ ID NO:1)] targeting the human exon 50 splice donor site. Cells were transfected with AON6 using the FUGENE (Roche) transfection reagent per manufacturer's instructions. Following AON6 incubation, each component of the BioMol library (n=503) was screened at 10 uM concentration with a final concentration of the DMSO carrier being 1%. Forty-eight hours later fluorescence was measured using the MicroXpress high content imager and analyzed using MetaXpress. Immediately preceding imaging, DNA was stained with Hoescht for 30 min. The BioMol screen without AO (−AO) was performed in 6 replicates, and the with AO (+AO) screen was performed in 3 replicates. For the screen analysis raw fluorescence values were normalized to carrier controls present on each plate by subtracting the values. Negative fluorescence values were set to 0. The data from each compound were averaged from all replicates. For secondary screening by 12 or 16 point dose response, Ex50GFP myoblasts or C2C12 cells without the reporter were seeded on uncoated 384 well plates. A sub-optimal dose of AON6 targeting DMD exon 50 was added for 4 hours.

DMD exon 51 [3] = settings: cited from earlier work
[4] = system: human DMD exon 50 GFP based reporter; experiment: Secondary screening, 12 or 16 point titrations on the DMD exon 50 reporter cell line with or without AON6; format: cell-based, mouse
Protocol: 12 or 16 point titrations of compounds were added to the Ex50-GFP and C2C12 myoblasts either with or without AON6.
as §1, with “hours. Following the 4 hour incubation, a compound dilution was added (beginning at 100 uM with 1:1 dilutions) for either 12 or 16 points. After a 48 hour incubation with compounds, DNA was stained with Hoescht, and fluorescence determined using the high content imager and analyzed with MetaXpress.” for “hours.”

[5] = With AON6 screen, 48 h, fluorescence normalized by subtracting DMSO carrier controls
[6] = With AON6 screen, 48 h, normalized to DMSO carrier controls
[7] = Without AON6 screen, 48 h, normalized to DMSO carrier controls

COC(=O)[C@H]1[C@H]2C[C@@H]3c4[nH]c5cc(OC)ccc5c4CCN3C[C@H]2C[C@@H](OC(=O)c2cc(OC)c(OC)c(OC)c2)[C@@H]1OC [Reserpine]
efficacy in counter screen and on mdx mouse myotubes (exon skipping): showing efficacy in counter screen and on mdx mouse myotubes

CC(=O)c1ccc2c(c1)N(CCCN1CCC(CCO)CC1)c1ccccc1S2 [piperacetazine]
AO directed DMD exon 51 skipping (DMD exon 51 [1]): enhance AO directed DMD exon 51 skipping

O=c1[nH]c2ccccc2n1C1CCN(CCCC(c2ccc(F)cc2)c2ccc(F)cc2)CC1 [PIMOZIDE]
efficacy in counter screen and on mdx mouse myotubes (exon skipping): showing efficacy in counter screen and on mdx mouse myotubes

O=C(Nc1ccc([N+](=O)[O-])cc1Cl)c1cc(Cl)ccc1O [Niclosamide]
efficacy in counter screen and on mdx mouse myotubes (exon skipping): showing efficacy in counter screen and on mdx mouse myotubes

O=C(O)[C@@H]1[C@H]2C[C@H]3c4[nH]c5ccccc5c4CCN3C[C@@H]2CC[C@@H]1O [Yohimbinic acid]
AO directed DMD exon 51 skipping (DMD exon 51 [1]): enhance AO directed DMD exon 51 skipping

CCCCN(CCCC)CCC(O)c1cc2c(Cl)cc(Cl)cc2c2cc(C(F)(F)F)ccc12.Cl (centres unmarked) [Halofantrine hydrochloride]
efficacy in counter screen and on mdx mouse myotubes (exon skipping): showing efficacy in counter screen and on mdx mouse myotubes

Ryanodine
AO directed DMD exon 51 skipping (DMD exon 51 [1]): enhance AO directed DMD exon 51 skipping
Fluorescence Plate 1 [2, 5]: 7.93
Fluorescence Plate 2 [2, 6]: 28.86
Fluorescence Plate 3 [2, 6]: 13.31
Average Fluorescence (n = 3) ([2]; With AON6 screen): 16.70

Pro051: systemic 2′-O-methyl modified AO directed against DMD exon 51 (antisense UCAAGGAAGAUGGCAUUUCU; all 2'-O-methyl, backbone not given here)
rescued dystrophin protein levels (DMD exon 51 [3]; systemic 2'-O-methyl AO, phase 1-2a): 1.8-15.6 % of normal
6 minute walk test at 48 weeks (DMD exon 51 [3]; weekly subcutaneous 6 mg/kg, non-placebo controlled extension): modest improvement

COC(=O)Nc1nc2cc(Sc3ccccc3)ccc2[nH]1 [Fenbendazole]
efficacy in counter screen and on mdx mouse myotubes (exon skipping): showing efficacy in counter screen and on mdx mouse myotubes

CC1CNCCN1S(=O)(=O)c1cccc2cnccc12 (centres unmarked) [H-7]
increase in fluorescence in the Ex50-GFP+AO compared to the reporter line without AO ([4]; 12 or 16 point titrations from 100 uM, positivity criterion (FIG. 5 legend: >10%)): 10%
dose response in Ex50-GFP reporter ([4]; 12 or 16 point titrations with AON6): evidence of a dose response
Fluorescence Plate 1 [2, 5]: 29.03
Fluorescence Plate 2 [2, 6]: 30.45
Fluorescence Plate 3 [2, 6]: 12.11
Average Fluorescence (n = 3) ([2]; With AON6 screen): 23.87

OCCN1CCN(CCCN2c3ccccc3Sc3ccc(C(F)(F)F)cc32)CC1 [Fluphenazine dihydrochloride]
AO directed DMD exon 51 skipping (DMD exon 51 [1]): enhance AO directed DMD exon 51 skipping

CN(C)CCCn1cc(C2=C(c3c[nH]c4ccccc34)C(=O)NC2=O)c2ccccc21 [GF 109203X]
efficacy in counter screen and on mdx mouse myotubes (exon skipping): showing efficacy in counter screen and on mdx mouse myotubes
Fluorescence Plate 1 [2, 7]: 22.19
Fluorescence Plate 2 [2, 7]: 15.01
Fluorescence Plate 3 [2, 7]: 13.67
Fluorescence Plate 4 [2, 7]: 66.78
Fluorescence Plate 5 [2, 7]: 64.46
Fluorescence Plate 6 [2, 7]: 66.48
Average Fluorescence (n = 6) ([2]; Without AON6 screen, average of 6 replicate plates): 41.76

CN1CCN(CCCN2c3ccccc3Sc3ccc(C(F)(F)F)cc32)CC1 [Trifluoperazine dihydrochloride]
AO directed DMD exon 51 skipping (DMD exon 51 [1]): enhance AO directed DMD exon 51 skipping

CC1=CC(=O)c2ccccc2C1=O [Menadione]
AO directed DMD exon 51 skipping (DMD exon 51 [1]): enhances AO directed DMD exon 51 skipping

CCOC(=O)Oc1c(OC)cc(C(=O)O[C@@H]2C[C@@H]3CN4CCc5c([nH]c6cc(OC)ccc56)[C@H]4C[C@@H]3[C@H](C(=O)OC)[C@H]2OC)cc1OC [Syrosingopine]
efficacy in counter screen and on mdx mouse myotubes (exon skipping): showing efficacy in counter screen and on mdx mouse myotubes

COc1ccc2c(c1)CN(C)CCS2 [RyCal S107]
AO directed DMD exon 51 skipping (DMD exon 51 [1]): enhance AO directed DMD exon 51 skipping

COC(=O)[C@H]1[C@H]2C[C@H]3c4[nH]c5ccccc5c4CCN3C[C@H]2CC[C@@H]1O [rauwolscine hydrochloride]
AO directed DMD exon 51 skipping (DMD exon 51 [1]): enhance AO directed DMD exon 51 skipping

Cc1c2ccncc2c(C)c2c1[nH]c1ccccc12 [Ellipticine]
efficacy in counter screen and on mdx mouse myotubes (exon skipping): showing efficacy in counter screen and on mdx mouse myotubes
